Source: publication PMC12207590, “Substrate Specificity of the Organic Cation Transporters MATE1 and MATE2K and Functional Overlap with OCT1 and OCT2” (Journal of Medicinal Chemistry, 2025)
Where two headings read alike, the source gives them in different places.

Assays:
[1] = molecular target: T1, MATE1 (Homo sapiens, UniProt Q96FL8); assay: Uptake ratio in MATE1-overexpressing HEK293 cells vs empty vector (2.5 μM, 1 min, HPLC-MS/MS); format: cell-based; details: for MATE1 ratio in this study: Table S1
T1 sequence (Q96FL8 1-570): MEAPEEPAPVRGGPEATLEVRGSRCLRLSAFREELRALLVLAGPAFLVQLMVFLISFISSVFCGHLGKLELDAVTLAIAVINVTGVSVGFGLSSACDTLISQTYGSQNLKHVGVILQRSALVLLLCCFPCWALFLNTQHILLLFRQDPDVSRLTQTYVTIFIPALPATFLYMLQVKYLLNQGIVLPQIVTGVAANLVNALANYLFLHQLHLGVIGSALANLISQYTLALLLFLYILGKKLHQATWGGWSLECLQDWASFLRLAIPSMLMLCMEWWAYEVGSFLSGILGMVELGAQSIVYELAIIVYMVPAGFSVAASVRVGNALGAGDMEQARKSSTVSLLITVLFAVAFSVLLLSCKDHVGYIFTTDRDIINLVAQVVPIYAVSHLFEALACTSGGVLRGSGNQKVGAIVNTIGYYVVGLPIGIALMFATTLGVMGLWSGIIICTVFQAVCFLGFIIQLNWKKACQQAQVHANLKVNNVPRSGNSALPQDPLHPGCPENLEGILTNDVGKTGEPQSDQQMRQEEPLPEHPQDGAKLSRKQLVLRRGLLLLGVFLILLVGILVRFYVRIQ

[2] = molecular target: MATE2K (Homo sapiens, UniProt Q86VL8); assay: Uptake ratio in MATE2K-overexpressing HEK293 cells vs empty vector (2.5 μM, 1 min, HPLC-MS/MS); format: cell-based; details: for MATE2K ratio in this study: Table S1
[3] = fold uptake over empty vector, 2.5 μM, 1 min
[4] = uptake ratio MATE1-overexpressing vs empty-vector HEK293 cells, 2.5 μM, 1 min, mean
[5] = uptake ratio MATE2K-overexpressing vs empty-vector HEK293 cells, 2.5 μM, 1 min, mean
[6] = mean ratio of uptake in MATE1-overexpressing HEK293 cells vs empty vector, 2.5 μM, 1 min
[7] = mean ratio of uptake in MATE2K-overexpressing HEK293 cells vs empty vector, 2.5 μM, 1 min

Sequence of MATE2K (Q86VL8 1-566 isoform Q86VL8-3): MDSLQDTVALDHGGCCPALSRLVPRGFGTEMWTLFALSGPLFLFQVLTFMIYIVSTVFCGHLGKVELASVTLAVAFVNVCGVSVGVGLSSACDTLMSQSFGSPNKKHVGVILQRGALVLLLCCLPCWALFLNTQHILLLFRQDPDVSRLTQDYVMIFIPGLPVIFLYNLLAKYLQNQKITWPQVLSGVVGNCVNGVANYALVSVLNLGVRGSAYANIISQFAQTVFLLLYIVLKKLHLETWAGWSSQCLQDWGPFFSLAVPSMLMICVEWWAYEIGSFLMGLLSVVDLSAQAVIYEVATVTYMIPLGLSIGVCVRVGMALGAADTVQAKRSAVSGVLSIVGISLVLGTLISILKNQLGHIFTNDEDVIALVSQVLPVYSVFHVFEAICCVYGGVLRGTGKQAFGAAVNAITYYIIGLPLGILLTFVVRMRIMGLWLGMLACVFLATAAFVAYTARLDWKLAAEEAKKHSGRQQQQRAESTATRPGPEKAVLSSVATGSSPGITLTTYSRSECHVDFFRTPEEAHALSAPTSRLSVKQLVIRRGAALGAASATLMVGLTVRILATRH

CC(C)(C)NCC(O)c1ccc(O)c(CO)c1 (stereo not shown) [Salbutamol]
MATE1 ratio in this study ([1]; 2.5 μM, 1 min): 7.94 | MATE1 ratio [1, 3]: 7.94 | MATE1 [1, 4]: 7.94 | MATE2K ratio in this study ([2]; 2.5 μM, 1 min): 3.73 | MATE2K ratio [2, 3]: 3.73 | MATE2 [2, 5]: 3.73

CCCS(=O)(=O)N[C@H]1C[C@@H](N(C)c2ncnc3[nH]ccc23)C1 [Abrocitinib]
MATE1 ratio [1, 3]: 1.09 | MATE1 (uptake ratio) [1, 6]: 1.09 | MATE2K ratio [2, 3]: 1.19 | MATE2 (uptake ratio) [2, 7]: 1.19

CC(C)NCC(O)COc1cccc2ccccc12 [Propranolol (S), Propranolol]
MATE1 [1, 4]: 1.13 | MATE2 [2, 5]: 0.96

Cc1ccc(C(=O)Oc2ccc(C(O)CNC(C)(C)C)cc2OC(=O)c2ccc(C)cc2)cc1 (stereo not shown) [Bitolterol]
MATE1 ratio [1, 3]: 0.38 | MATE1 (uptake ratio) [1, 6]: 0.38 | MATE2K ratio [2, 3]: 0.57 | MATE2 (uptake ratio) [2, 7]: 0.57

Cc1ncc(CO)c(C=O)c1O [Pyridoxal]
MATE1 ratio [1, 3]: 0.97 | MATE1 [1, 4]: 0.97 | MATE2K ratio [2, 3]: 1.14 | MATE2 [2, 5]: 1.14

CC(C)(C)c1ccc(C(O)CCCN2CCC(C(O)(c3ccccc3)c3ccccc3)CC2)cc1 (stereo not shown) [Terfenadine]
MATE1 [1, 4]: 1.07 | MATE2 [2, 5]: 0.93

CNC[C@H](O)c1cccc(O)c1 [Phenylephrine (S), Phenylephrine]
MATE1 ratio [1, 3]: 12.74 | MATE2K ratio [2, 3]: 1.44

Nc1cccc2c1C(=O)N(C1CCC(=O)NC1=O)C2=O (stereo not shown) [Pomalidomide]
MATE1 ratio [1, 3]: 1.08 | MATE2K ratio [2, 3]: 0.89

CN(C)CCC=C1c2ccccc2COc2ccccc21 [Doxepin (Z), Doxepin]
MATE1 ratio [1, 3]: 1.28 | MATE2K ratio [2, 3]: 1.09

N[C@@H](Cc1ccc(O)c(O)c1)C(=O)O [Levodopa]
MATE1 ratio [1, 3]: 0.71 | MATE2K ratio [2, 3]: 1.01

N[C@@H](CCC(=O)O)C(=O)O [Glutamic acid (D), Glutamic acid]
MATE1 ratio [1]: 1.17 | MATE2K ratio [2]: 0.99

CCOc1ccccc1OCC1CNCCO1 (stereo not shown) [Viloxazine]
MATE1 [1]: 1.12 | MATE2 [2]: 1.38

Nc1c(Br)cc(Br)cc1CN[C@H]1CC[C@H](O)CC1 [Ambroxol]
MATE1 ratio [1, 3]: 1.00 | MATE1 (uptake ratio) [1, 6]: 1 | MATE2K ratio [2, 3]: 1.32 | MATE2 (uptake ratio) [2, 7]: 1.32

CC(=O)N[C@@H](CS)C(=O)O [N-Acetyl-L-cysteine]
MATE1 ratio [1, 3]: 1.02 | MATE2K ratio [2, 3]: 0.95

N#CC[C@H](C1CCCC1)n1cc(-c2ncnc3[nH]ccc23)cn1 [Ruxolitinib]
MATE1 ratio [1, 3]: 1.13 | MATE1 [1, 4]: 1.13 | MATE2K ratio [2, 3]: 0.99 | MATE2 [2, 5]: 0.99

Cc1oc2nc3c(c(NC(=O)CN4CCCC4=O)c2c1C)CCCC3 [Coluracetam]
MATE1 ratio [1, 3]: 0.97 | MATE2K ratio [2, 3]: 0.97

OCCN(CCO)c1nc(N2CCCCC2)c2nc(N(CCO)CCO)nc(N3CCCCC3)c2n1 [Dipyridamole]
MATE1 ratio [1, 3]: 1.11 | MATE2K ratio [2, 3]: 1.13

COC(=O)[C@@H]1[C@H]2CC[C@@H](C[C@@H]1O)N2C [Methylecgonine]
MATE1 ratio [1]: 1.54 | MATE2K ratio [2]: 1.36

CC(=O)Nc1ccc(OCC(O)CNC(C)C)cc1 (stereo not shown) [Practolol]
MATE1 ratio [1, 3]: 21.52 | MATE2K ratio [2, 3]: 8.46

CC(C)(C)NCC(O)c1cc(O)cc(O)c1 (stereo not shown) [Terbutaline]
MATE1 [1, 4]: 6.74 | MATE2 [2, 5]: 7.04

O=c1[nH]c2ccccc2n1C1CCN(CCCC(c2ccc(F)cc2)c2ccc(F)cc2)CC1 [Pimozide]
MATE1 ratio [1, 3]: 0.98 | MATE2K ratio [2, 3]: 0.76

CCc1nc(N)nc(N)c1-c1ccc(Cl)cc1 [Pyrimethamine]
MATE1 ratio [1, 3]: 1.17 | MATE1 [1, 4]: 1.17 | MATE2K ratio [2, 3]: 1.10 | MATE2 [2, 5]: 1.1

CC1(C)C[C@@H]1C(=O)N/C(=C\CCCCSC[C@H](N)C(=O)O)C(=O)O [Cilastatin]
MATE1 (uptake ratio) [1]: 1.13 | MATE1 ratio [1]: 1.13 | MATE2 (uptake ratio) [2]: 0.96 | MATE2K ratio [2]: 0.96

O=C(O[C@H]1C[N+]2(CCCOc3ccccc3)CCC1CC2)C(O)(c1cccs1)c1cccs1 [Aclidinium (S), Aclidinium]
MATE1 ratio [1, 3]: 5.36 | MATE1 (uptake ratio) [1, 6]: 5.36 | MATE2K ratio [2, 3]: 1.64 | MATE2 (uptake ratio) [2, 7]: 1.64

CN(CCN1CCC(OC(=O)Nc2ccccc2-c2ccccc2)CC1)C(=O)c1ccc(CN2CCC(C(N)=O)CC2)cc1 [Revefenacin]
MATE1 ratio [1, 3]: 1.39 | MATE1 [1, 4]: 1.39 | MATE2K ratio [2, 3]: 1.17 | MATE2 [2, 5]: 1.17

NCCc1ccccc1 [2-Phenylethylamine]
MATE1 ratio [1, 3]: 1.39 | MATE1 (uptake ratio) [1, 6]: 1.39 | MATE2K ratio [2, 3]: 1.43 | MATE2 (uptake ratio) [2, 7]: 1.43

CCN1CCCC1CNC(=O)c1cc(S(=O)(=O)CC)c(N)cc1OC [Amisulpride (S), Amisulpride]
MATE1 ratio [1, 3]: 13.70 | MATE1 (uptake ratio) [1, 6]: 13.7 | MATE2K ratio [2, 3]: 7.93 | MATE2 (uptake ratio) [2, 7]: 7.93

CC(=O)Oc1c(C)cc(OCC(O)CNC(C)C)c(C)c1C (stereo not shown) [Metipranolol]
MATE1 ratio [1, 3]: 1.21 | MATE2K ratio [2, 3]: 1.17

Nc1ccn([C@@H]2O[C@H](CO)[C@@H](O)C2(F)F)c(=O)n1 [Gemcitabine]
MATE1 ratio in this study ([1]; 2.5 μM, 1 min): 1.29 | MATE1 ratio [1, 3]: 1.29 | MATE2K ratio in this study ([2]; 2.5 μM, 1 min): 1.08 | MATE2K ratio [2, 3]: 1.08

CC(C)(CO)[C@@H](O)C(=O)NCCC(=O)O [Pantothenic acid]
MATE1 ratio [1, 3]: 1.48 | MATE2K ratio [2, 3]: 1.71

NCCCCN=C(N)N [Agmatine]
MATE1 ratio in this study ([1]; 2.5 μM, 1 min): 1.08 | MATE1 ratio [1, 3]: 1.08 | MATE1 (uptake ratio) [1, 6]: 1.08 | MATE2K ratio in this study ([2]; 2.5 μM, 1 min): 1.05 | MATE2K ratio [2, 3]: 1.05 | MATE2 (uptake ratio) [2, 7]: 1.05

CNCC/C=C1/c2ccccc2CC(O)c2ccccc21 (stereo not shown) [10-OH-Nortriptyline]
MATE1 (uptake ratio) [1]: 1.17 | MATE1 ratio [1]: 1.17 | MATE2 (uptake ratio) [2]: 1.14 | MATE2K ratio [2]: 1.14

CC(N)[C@H](O)c1ccc(O)c(O)c1 (stereo partly drawn) [Alpha-methylnorepinephrine (-), Alpha-methylnorepinephrine]
MATE1 (uptake ratio) [1]: 1.85 | MATE1 ratio [1]: 1.85 | MATE2 (uptake ratio) [2]: 0.72 | MATE2K ratio [2]: 0.72

CN(C)CCOC(=O)C(c1ccccc1)C1(O)CCCC1 (stereo not shown) [Cyclopentolate]
MATE1 ratio [1, 3]: 1.09 | MATE2K ratio [2, 3]: 1.34

CC(C)(C)NCC(O)COc1cccc2c1CC(O)C(O)C2 (stereo not shown) [Nadolol]
MATE1 ratio in this study ([1]; 2.5 μM, 1 min): 9.41 | MATE1 ratio [1, 3]: 9.41 | MATE2K ratio in this study ([2]; 2.5 μM, 1 min): 10.12 | MATE2K ratio [2, 3]: 10.12

O=c1cccc2n1C[C@@H]1CNC[C@H]2C1 [Cytisine]
MATE1 ratio [1]: 1.95 | MATE2K ratio [2]: 1.17

CN[C@H]1CC[C@@H](c2ccc(Cl)c(Cl)c2)c2ccccc21 [Sertraline]
MATE1 ratio [1, 3]: 1.28 | MATE1 [1, 4]: 1.28 | MATE2K ratio [2, 3]: 1.10 | MATE2 [2, 5]: 1.1

CNCc1ccc(-c2[nH]c3cc(F)cc4c3c2CCNC4=O)cc1 [Rucaparib]
MATE1 ratio [1, 3]: 3.71 | MATE1 [1, 4]: 3.71 | MATE2K ratio [2, 3]: 2.03 | MATE2 [2, 5]: 2.03

O=C(c1ccc(OCCN2CCCCC2)cc1)c1c(-c2ccc(O)cc2)sc2cc(O)ccc12 [Raloxifene]
MATE1 ratio [1, 3]: 1.12 | MATE1 [1, 4]: 1.12 | MATE2K ratio [2, 3]: 1.12 | MATE2 [2, 5]: 1.12

CNCCc1ccc(O)c(O)c1 [Deoxyepinephrine]
MATE1 ratio [1, 3]: 34.31 | MATE2K ratio [2, 3]: 3.40

NNCCc1ccccc1 [Phenelzine]
MATE1 ratio [1, 3]: 1.58 | MATE2K ratio [2, 3]: 1.91

C[N+]1(C)CCCC(OC(=O)C(O)(c2ccccc2)c2ccccc2)C1.[Br-] (stereo not shown) [Mepenzolate]
MATE1 ratio [1, 3]: 23.89 | MATE2K ratio [2, 3]: 1.72

Oc1ncnc2[nH]ncc12 [Allopurinol]
MATE1 ratio [1, 3]: 1.08 | MATE1 (uptake ratio) [1, 6]: 1.08 | MATE2K ratio [2, 3]: 0.85 | MATE2 (uptake ratio) [2, 7]: 0.85

CCN1C[C@]2(COC)[C@H](O)C[C@H](OC)[C@@]34[C@@H]5C[C@@]6(O)[C@H](OC(=O)c7ccccc7)[C@@H]5[C@@](OC(C)=O)([C@@H]([C@H](OC)[C@H]23)[C@@H]14)[C@@H](O)[C@@H]6OC [Aconitine]
MATE1 (uptake ratio) [1]: 1.13 | MATE1 ratio [1]: 1.13 | MATE2 (uptake ratio) [2]: 1.32 | MATE2K ratio [2]: 1.32

C[N+]1(C)CCN(c2ccccc2)CC1 [Dimethylphenylpiperazinium]
MATE1 ratio [1]: 29.06 | MATE2K ratio [2]: 4.30

CNC(=O)c1cccnc1 [Methylnicotinamide, N-Methylnicotinamide]
MATE1 ratio in this study ([1]; 2.5 μM, 1 min): 33.89 | MATE1 ratio [1, 3]: 33.89 | MATE2K ratio in this study ([2]; 2.5 μM, 1 min): 5.40 | MATE2K ratio [2, 3]: 5.40

NC(N)=NCCCC[C@H](N)C(=O)O [Homoarginine]
MATE1 ratio [1]: 0.97 | MATE2K ratio [2]: 0.97

NCCCC[C@H](N)C(=O)O [Lysine]
MATE1 ratio [1]: 1.13 | MATE2K ratio [2]: 1.05

CN(C)c1ccc(C(=C2C=CC(=[N+](C)C)C=C2)c2ccc(N(C)C)cc2)cc1 [Gentian violet]
MATE1 ratio [1, 3]: 1.40 | MATE2K ratio [2, 3]: 1.05
